Reference: publication PMC3486884 (PLoS Pathogens, 2012)
Where two headings read alike, the source gives them in different places.

System: influenza virus (strain A/Puerto Rico/8/34/H1N1 depicted PR8)
Conditions: n=2

| Structure (SMILES) | relative infection (0.1 µM) | relative infection (0.3 µM) | relative infection (0.9 µM) | relative infection (2.8 µM) | relative infection (8.3 µM) | relative infection (25.0 µM) |
| --- | --- | --- | --- | --- | --- | --- |
| O=C(Nc1ccc([N+](=O)[O-])cc1Cl)c1cc(Cl)cc(Cl)c1O [TVB-1326] | 1.02 | 0.94 | 0.90 | 0.78 | 0.68 | 0.01 |
| O=C(Nc1ccc([N+](=O)[O-])cc1Cl)c1cc(Cl)ccc1OCCOc1ccccc1 [TVB-1329] | 0.99 | 0.98 | 1.04 | 0.99 | 0.69 | 0.04 |
| O=C(Nc1ccc([N+](=O)[O-])cc1Cl)c1ccccc1O [TVB-1332] | 1.04 | 1.06 | 1.04 |  | 0.02 | 0.00 |
| CS(=O)(=O)c1ccc(NC(=O)c2cc(Cl)ccc2O)c(Cl)c1 [TVB-1338] | 0.81 | 0.81 | 0.78 | 0.82 | 0.78 |  |
